Results on one substance are retold here after patent US20090155245A1, “Treatment for Organ Regeneration with Combination of Drug and Biologics” (priority 2007, published 2009).

For one experiment, the system named is diabetic rats. Kind of experiment: Streptozotocin-induced diabetic nephropathy rat model. Type of experiment: in vivo. The note with it: rhGDF-5 300 μg/kg ip 3x per week. The method, then:
The efficacy of the combination therapy was tested in a diabetic nephropathy rat model.
Diabetic condition in the animals was induced for 1 week by a single i.v. injection of Streptozotocin. Subsequently, the animals were treated for 14 weeks with or without 300 μg/kg rhGDF-5 (i.p., 3× per week), 10 mg/kg of Enalapril (gavage, once daily), or a combination of the two.
Blood glucose measurements and subcutaneous insulin administrations (as necessary) were carried out thrice weekly to maintain a glucose level between 280 and 400 mg/dL. Urine samples were collected every two weeks; blood samples collected every four weeks for measuring level of urine microalbumin, serum creatinine, blood urea nitrogen, and urine creatinine. On week fourteen, a final set of samples was collected; then the animals were euthanized and subjected to a limited necropsy involving the collection of the kidneys. One kidney from each animal was flash frozen for gene expression analysis as needed and the other preserved in 10% neutral buffered formalin, after which it was examined microscopically.
Histological examination was performed on the kidneys. […] Slides were evaluated on the basis of morphologic changes according to the following grading scheme: 0=within normal limits; 1=minimal; 2=mild; 3=moderate. All microscopic slides were evaluated and gross and microscopic findings were reported.

The subject of another experiment is UUO induced renal injury. Kind of experiment: Unilateral Ureter Obstruction (UUO) model, H&E histology renal injury scoring. It counts as in vivo, mice (C57BL/6). The note with it: UUO mice, 12 days of treatment, vs vehicle; rhGDF-5 300 μg/kg ip 3x/week, SD282 60 mg/kg gavage twice daily. The text has this: The theraputic effects of rhGDF-5 was further tested along with SD282 in Unilateral Ureter Obstruction Model (UUO) in the present invention. Mice were subjected to unilateral ureter obstruction and treatment started on the same day as the UUO surgery. After 12 days of treatment, the obstructed kidneys were harvested for Hematoxylin and Eosin (H&E) staining and RT-PCR analysis. […] CCL2 induces recruitment of monocytes, T lymphocytes, eosinophils, and basophils and is responsible for many inflammatory reactions to disease, and has been linked to recruitment of osteoclast precursors. PDGF plays a role in embryonic development, cell proliferation, cell migration, and angiogenesis. […] The efficacy of rhGDF-5 was further tested along with SD282 in a mouse UUO model. Treatment started on the same day of the UUO, and included rhGDF-5 and SD282. At the end of the 12-day treatment, histology scoring and gene expression analysis was preformed on endpoint measurements. Unilateral Ureter Obstruction Model (“UUO”) was used because it is a commonly used mouse model for progressive tubulointerstitial fibrosis in the kidney. Male C57BL/6 mice were purchased at age 6 to 8 weeks from Jackson Labs (Bar Harbor, Me.). They were housed in an animal facility that was maintained at 25° C. with a 12-hour light-dark cycle. […]

The subject of experiment [1] is chemokine ligand 2 (CCL2) gene expression. Kind of experiment: UUO model, RT-PCR gene expression analysis of obstructed kidney (CCL2). Conditions: UUO mice, 12 days of treatment, vs controls. It counts as in vivo, mice (C57BL/6). From the text:
(§1) The theraputic effects of rhGDF-5 was further tested along with SD282 in Unilateral Ureter Obstruction Model (UUO) in the present invention. Mice were subjected to unilateral ureter obstruction and treatment started on the same day as the UUO surgery. After 12 days of treatment, the obstructed kidneys were harvested for Hematoxylin and Eosin (H&E) staining and RT-PCR analysis. […] CCL2 induces recruitment of monocytes, T lymphocytes, eosinophils, and basophils and is responsible for many inflammatory reactions to disease, and has been linked to recruitment of osteoclast precursors. PDGF plays a role in embryonic development, cell proliferation, cell migration, and angiogenesis.
(§2) The efficacy of rhGDF-5 was further tested along with SD282 in a mouse UUO model. Treatment started on the same day of the UUO, and included rhGDF-5 and SD282. At the end of the 12-day treatment, histology scoring and gene expression analysis was preformed on endpoint measurements.
(§3) Experimental animals were treated with rhGDF-5, 3 times per week, via ip injection at 300 μg/kg and SD282, twice, daily through gavage at 60 mg/kg dissolved in 0.5% methylcellulose. Control mice received an equal volume of 0.5% methylcellulose vehicle. Treatment dose was selected based on a review of the literature and represented the highest dose that was free of side effects in other experimental studies. […]

Experiment [2] relates to platelet-derived growth factor (PDGF) gene expression. Briefly: UUO model, RT-PCR gene expression analysis of obstructed kidney (PDGF). It counts as in vivo, mice (C57BL/6). The note with it: UUO mice, 12 days of treatment, vs controls.
Excerpt: as §1, §2, §3

The test system of another experiment is 5/6 nephrectomy rats. Briefly: 5/6 nephrectomy (Nx) rat study of chronic renal failure. It counts as in vivo, rat (inbred Lewis). The note with it: 5/6 Nx rats, rhGDF-5 50 μg/kg ip 3 times per week. The protocol:
Both sham and 5/6 Nx performed rats were treated 4 weeks post surgery with different reagents as indicated. The effects of the treatment were analyzed every two weeks through blood and urine sample analysis consisting of hematology, serum and urine chemistry and proteinuria. After 10 weeks of treatment, kidney samples were taken from the right kidney and evaluated using histopathology for glomerulorsclerosis, interstitial fibrosis and tubular degemation. All the data were converted to a weighted ranking system from 1 to 10 and averaged for the 10 weeks. A better efficacy from a treatment receives a higher score and the maximum score is the level for sham group. […]
rhGDF-5 was administrated 3 times per week at 50 μg/kg by ip. […] Effects of these treatments on kidney function was evaluated every two weeks by monitoring clinical observations, body weights, urine volume and duration of collection, and clinical pathology parameters through blood and urine sample analysis (hematology, serum chemistry, and urine chemistry). Residual urine samples were also evaluated for protein levels, beginning on Day 28, by AniLytics, Inc. On Day 70, surviving animals were euthanized and subjected to a limited necropsy, consisting of collection of the right kidney (2 sham groups) or the remaining third of the right kidney (all the Nx groups). […]

“Also recorded” adds a separate entry of the source.

Regarding “rhGDF-5: recombinant human Growth and Differentiation factor-5, a protein belonging to the TGF-β superfamily (morphogen)”, the “urine microalbumin / protein level in urine” value in the experiment with diabetic rats is “comparable efficacy on reducing urine micro albumine level; also recorded: comparable effect on reducing protein level in urine”. For the same substance, the “renal injury score (histology scoring, H&E)” value in the experiment with UUO induced renal injury was “reduced renal structural damage; also recorded: reduced renal injury score”. Moreover, the CCL2 gene expression entry in experiment [1] is “decreased expression of CCL2; also recorded: prevents chemokine ligand 2 (CCL2)”. In experiment [2], the PDGF gene expression result is listed as “decreased expression; also recorded: prevents”. In addition, in the experiment on 5/6 nephrectomy rats, the “blood urea nitrogen levels” value is given as “some effect on reducing blood urea nitrogen levels”.
